Source: the NIST ThermoML archive (doi:10.1016/j.jct.2013.08.019)
Values joined by “and” are separate entries in the source; they are usually repeats but may differ in a detail not shown here. Equal values may be shown once. Numbers after ± are expanded uncertainties.

Legend:
[1] = Molar enthalpy of transition or fusion; conditions: DSC
[2] = DTA; for Triple point temperature: Crystal 2

| Molar enthalpy of transition or fusion ([1]; Crystal) [kcal/mol] | Normal melting temperature ([2]; Crystal) [°C] | Molar enthalpy of transition or fusion ([1]; Crystal 2) | Normal melting temperature ([2]; Crystal 1) [°C] | Triple point temperature [2] [K] | Compound |
| --- | --- | --- | --- | --- | --- |
|  |  | 17.4 ± 0.359 kcal/mol | 93 ± 0.7 | 364.1 ± 0.7 | OCCCCCCCCCCCCCCCCO [1,16-dihydroxyhexadecane] |
|  |  | 15.6 kcal/mol and 9.15 kcal/mol | 88.1 ± 0.7 | 349 ± 0.7 | OCCCCCCCCCCCCCCCO [1,15-pentadecanediol] |
| 11 ± 0.239 | 61.0 ± 0.6 |  |  |  | OCCCCCCCCCCCO [1,11-undecanediol] |
| 15.2 ± 0.311 | 86.1 ± 0.7 |  |  |  | OCCCCCCCCCCCCCCO [1,14-tetradecanediol] |
| 13 ± 0.263 | 79.8 ± 0.7 |  |  |  | OCCCCCCCCCCCCO [1,12-dihydroxydodecane] |
|  |  | 13.1 ± 0.287 kcal/mol | 77.2 ± 0.7 | 339.3 ± 0.7 | OCCCCCCCCCCCCCO [1,13-tridecanediol] |

More lines, now with the values behind:

| Compound | Molar enthalpy of transition or fusion ([1]; Crystal) [kcal/mol] | Normal melting temperature ([2]; Crystal) [°C] | Molar enthalpy of transition or fusion ([1]; Crystal 2) | Normal melting temperature ([2]; Crystal 1) [°C] | Triple point temperature [2] [K] |
| --- | --- | --- | --- | --- | --- |
| OCCCCCCCCO [1,8-octanediol] | 8.68 ± 0.191 | 58.5 ± 0.6 |  |  |  |
| OCCCCCCCCCO [1,9-nonanediol] | 8.77 ± 0.191 | 45.6 ± 0.6 |  |  |  |
| OCCCCCCCO [1,7-heptanediol] | 6.29 ± 0.215 | 17.4 ± 4 |  |  |  |
| OCCCCCCCCCCO [1,10-decanediol] | 10.8 ± 0.239 | 72.7 ± 0.7 |  |  |  |
| OCCCCCCO [1,6-hexanediol] | 6.31 ± 0.143 | 41.6 ± 0.6 |  |  |  |
